Data taken from PubChem BioAssay AID624405 (Broad Institute, 2012).
Records with an inconclusive call do not appear.

Test system: C2C12 myotubes + simvastatin, ATP luminescence, 48 h
Test: suppressors of statin myotoxicity in myotubes, dose response, cell-based, C2C12 myotubes, ATP luminescence, cherry pick (AID 624405);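 further: myotubes are challenged with simvastatin at 10 µM to lower ATP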

Compound	AC40 [µM]
C[C@H]1CN([C@@H](C)CO)C(=O)c2cc(N(C)C)ccc2O[C@@H]1CN(C)Cc1ccc(C(=O)Nc2ccccc2N)cc1	5.34
C[C@@H]1CN([C@@H](C)CO)C(=O)c2cc(NC(=O)Nc3cccc4ccccc34)ccc2O[C@@H]1CN(C)Cc1ccc(C(=O)Nc2ccccc2N)cc1	2.85
N#C[C@@H]1[C@@H](c2ccc(-c3cccc(F)c3)cc2)[C@H](CO)N1C(=O)NC1CCCC1	0.38
COc1cc(/C=C(/C(=O)c2cccs2)c2nc3ccccc3[nH]2)cc(OC)c1O	1.38
C[C@@H]1CN([C@@H](C)CO)C(=O)c2cc(NC(=O)Nc3cccc4ccccc34)ccc2O[C@H]1CN(C)Cc1ccc(C(=O)Nc2ccccc2N)cc1	15.2
Cc1cc(C(=O)COC(=O)C2=NNC(=O)CC2)c(C)n1-c1ccccc1	11.7
CN1C(=O)c2ccc(N(C)C)cc2C1=O	9.68
C=CCOc1ccc(Br)cc1/C=N/O	17.9
C[C@@H]1CN([C@H](C)CO)C(=O)c2cccc(NC(=O)c3nc4ccccc4s3)c2O[C@@H]1CN(C)Cc1ccc(C(=O)Nc2ccccc2N)cc1	0.462
CC1CCN(c2nc3c(c(=O)[nH]c(=O)n3C)n2CCCc2ccccc2)CC1	4.71
C[C@H](CO)N1C[C@H](C)[C@H](CN(C)Cc2ccccc2)Oc2ccc(NC(=O)CCCCCC(=O)Nc3ccccc3N)cc2CC1=O	10.1
Cc1cccc(-c2nnc3n2N=C(c2ccccc2Br)CS3)c1	0.28
COc1cc(NC(=O)CN(C)S(=O)(=O)c2ccc3c(c2)CC(C)N3C(C)=O)cc(OC)c1OC (centres undefined)	15.9
CCSC1(SCC)N=C(N)C2(C#N)C(c3ccc(F)cc3)C12C#N (centres undefined)	6.36
C[C@H]1CN([C@@H](C)CO)C(=O)Cc2cc(NC(=O)CCCCCC(=O)Nc3ccccc3N)ccc2O[C@H]1CN(C)Cc1ccc(Cl)c(Cl)c1	12.6
CCOc1ccccc1NC(=O)C1CCCN(S(=O)(=O)c2ccc(OC)c(C)c2)C1 (centres undefined)	8.06
CCOc1[nH]n(-c2ccccc2)c(=O)c1C=Nc1ccc(Cl)cc1	11.9
C[C@H]1CN([C@@H](C)CO)C(=O)c2cc(NC(=O)Nc3cccc4ccccc34)ccc2O[C@@H]1CN(C)Cc1ccc(C(=O)Nc2ccccc2N)cc1	17.7
C/C=C/Cn1c(SCc2ccccc2)nc2c1c(=O)[nH]c(=O)n2C	0.556
COc1ccc(Nc2nc3ccc(C)cn3c(=O)c2/C=N/O)cc1	15.2
C[C@H](CO)N1C[C@H](C)[C@H](CN(C)Cc2ccc(C(=O)Nc3ccccc3N)cc2)Oc2ccc(NC(=O)Nc3cccc4ccccc34)cc2C1=O	8.83
COc1ccc(S(=O)(=O)Nc2ccc3c(c2)CC(=O)N([C@H](C)CO)C[C@@H](C)[C@H](CN(C)CC2CCCCC2)O3)cc1	2.63
COc1ccc(S(=O)(=O)N2CCCCC2)cc1C(C)C	8.77

Compound	AC40 [µM]
C[C@@H]1CN([C@@H](C)CO)C(=O)Cc2cc(N(C)C)ccc2O[C@@H]1CN(C)Cc1ccc(Cl)c(Cl)c1	9.93
C[C@H]1CN([C@@H](C)CO)S(=O)(=O)c2ccc(C#Cc3ccc(F)cc3)cc2O[C@@H]1CN(C)S(=O)(=O)c1cn(C)cn1	5.96
Cc1ccc(NS(=O)(=O)c2ccc(-n3cccn3)cc2)cc1C	16.1
CCn1c(CNc2ccc(F)cc2)nnc1SCC(=O)Nc1ccc(OC)cc1	5.81
COc1ccc(C)cc1C(=O)C1CC(C(=O)O)C(C)(C)C1C (centres undefined)	10.6
O=S(=O)(Nc1nc2c(s1)CCCC2)c1ccc2ccccc2c1	5.94
c1coc(-c2nc3ccccc3s2)c1	18
Cc1nc(-c2cccc(S(=O)(=O)N3CC(C)OC(C)C3)c2)cs1 (centres undefined)	18.3
C[C@H]1CN([C@@H](C)CO)C(=O)c2cc(NC(=O)Cc3cn(C)c4ccccc34)ccc2O[C@H]1CN(C)Cc1ccc(C(=O)Nc2ccccc2N)cc1	3.17
COc1ccc(S(=O)(=O)Nc2ccc3c(c2)OCCO3)cc1Cl	1.46
COc1ccc(CN(C)C[C@H]2Oc3ccc(NS(=O)(=O)c4ccc(Cl)cc4)cc3CC(=O)N([C@@H](C)CO)C[C@@H]2C)cc1	0.484
Cc1cccn2c(=O)c(C=O)c(N3CCCCCC3)nc12	15.1
Cc1ccc(S(=O)(=O)Nc2ccc3c(c2)CC(=O)N([C@H](C)CO)C[C@H](C)[C@@H](CN(C)Cc2ccc(Cl)c(Cl)c2)O3)cc1	8.12
COc1ccc(C#Cc2cnc3c(c2)C(=O)N([C@H](C)CO)C[C@H](C)[C@@H](CN(C)C(=O)Nc2cccc(OC)c2)O3)cc1	1.38
C[C@@H]1CN([C@H](C)CO)C(=O)c2cccc(NC(=O)Nc3ccc4c(c3)OCO4)c2O[C@H]1CN(C)Cc1ccc(C(=O)Nc2ccccc2N)cc1	0.893
CC(=O)Nc1nc2n(n1)C(c1ccc(F)cc1)C=C(c1ccccc1)N2 (centres undefined)	1.77
Cc1csc(NC(=O)CSc2nc3[nH]c(=O)cc(O)c3s2)n1	4.2
Cc1ccc(C(C(=O)NC2CCCC2)N(C(=O)Cc2cccs2)c2ccc3c(c2)OCCO3)cc1 (centres undefined)	19
C[C@H]1CN([C@@H](C)CO)C(=O)Cc2cc(NC(=O)CCCCCC(=O)Nc3ccccc3N)ccc2O[C@H]1CN(C)Cc1ccc(Oc2ccccc2)cc1	3.86
Cc1cc2c3c(c1)C1(SCC(=O)N1c1ccc(F)cc1)C(=O)N3C(C)(C)CC2C (centres undefined)	4.82
Fc1ccc(C2=Nn3c(nnc3-c3n[nH]c4c3CCC4)SC2)cc1	1.23
c1ccc(-c2csc3nnc(SCc4ccc5c(c4)OCCO5)n23)cc1	3.7
C[C@H](CO)N1C[C@H](C)[C@@H](CN(C)Cc2ccc(C(F)(F)F)cc2)Oc2ccc(NS(=O)(=O)c3ccc(F)cc3)cc2CC1=O	18.2

Compound	AC40 [µM]
C[C@H]1CN([C@@H](C)CO)C(=O)c2cccc(NC(=O)Nc3ccc(C(F)(F)F)cc3)c2O[C@H]1CN(C)CC1CCCCC1	19.1
O=C(CN1CCN(c2nc(-c3ccccc3)cs2)CC1)NCc1ccc2c(c1)OCO2	10
O=C(C[C@H]1CC[C@@H]2[C@H](COC[C@H](O)CN2CCC(F)(F)F)O1)NCc1ccc(Oc2ccccc2)cc1	7.6
O=C1c2ccccc2-c2onc3ccc(Oc4ccccc4)c1c23	5.91
Cc1ccc(S(=O)(=O)N2CCN(S(=O)(=O)c3ccc(C)cc3)C2c2ccccc2)cc1	18.6
CCC(=O)/C=C1/Sc2ccccc2N1CC	7.21
CCc1ccc(CNCc2cccnc2)cc1	17.7
CCC(C(=O)N(C(C)C)C(C)C)c1ccccc1 (centres undefined)	18.8
Cc1ccc(S(=O)(=O)N(C)C[C@H]2Oc3c(NC(=O)Nc4ccccc4)cccc3C(=O)N([C@@H](C)CO)C[C@H]2C)cc1	18
C[C@@H]1CN([C@H](C)CO)C(=O)Cc2cc(NC(=O)C3CCCCC3)ccc2O[C@H]1CN(C)Cc1ccc(Cl)c(Cl)c1	5.24
COc1cc(OC)cc(-c2nnc(SCC(=O)N3CCCc4ccccc43)o2)c1	16.8
C[C@@H]1CN([C@H](C)CO)C(=O)Cc2cc(NC(=O)CCCCCC(=O)Nc3ccccc3N)ccc2O[C@H]1CN(C)Cc1ccc(-c2ccccc2)cc1	6.3
C=CCn1c(SCC(=O)NC2CCCC2)nc2scc(-c3ccco3)c2c1=O	9.19
CCOCCCN1CN(S(=O)(=O)c2ccc(Cl)cc2)c2nc3ccccc3nc21	1.87
O=C(Nc1cccc(O)c1)c1cc(-c2cccs2)on1	5.99
COc1ccc(S(=O)(=O)N(C)C[C@H]2Oc3c(NC(=O)Nc4ccccc4)cccc3C(=O)N([C@H](C)CO)C[C@H]2C)cc1	4.87
Cc1ccc(N2CC(C(=O)Nc3ccc(N(C)C)cc3)CC2=O)cc1C (centres undefined)	12
CCOc1c(S(=O)(=O)N2CCCC2)ccc(Cl)c1Cl	5.43
CC1Cc2ccccc2N1C(=O)CSc1nnc(Cc2ccccc2)n1CCc1ccccc1 (centres undefined)	8.6
C[C@@H]1CN([C@@H](C)CO)C(=O)c2cccc(NC(=O)Nc3ccccc3)c2O[C@@H]1CN(C)S(=O)(=O)c1ccc(F)cc1	15.1
C[C@H]1CN([C@@H](C)CO)C(=O)c2cc(NC(=O)Nc3cccc4ccccc34)ccc2O[C@H]1CN(C)Cc1ccc(C(=O)Nc2ccccc2N)cc1	5.45
Clc1ccc(Cn2ncc3c(N4CCCCC4)ncnc32)cc1	15.8
C[C@@H]1CN([C@H](C)CO)C(=O)Cc2cc(NC(=O)CCCCCC(=O)Nc3ccccc3N)ccc2O[C@@H]1CN(C)Cc1ccc(Cl)c(Cl)c1	9.57

Compound	AC40 [µM]
N#C[C@@H]1[C@@H](c2ccc(-c3ccc(F)cc3)cc2)[C@H](CO)N1C(=O)Cc1ccccc1	9.36
C[C@@H]1CN([C@@H](C)CO)C(=O)Cc2cc(NC(=O)CCCCCC(=O)Nc3ccccc3N)ccc2O[C@H]1CN(C)Cc1ccc(-c2ccccc2)cc1	10.7
N#CCCCSc1nnc(CSc2nc3ccccc3s2)n1-c1ccccc1	9.75
C[C@H](CO)N1C[C@H](C)[C@H](CN(C)Cc2ccc(C(=O)Nc3ccccc3N)cc2)Oc2ccc(NC(=O)Nc3ccc(F)cc3)cc2CC1=O	1.97
CCCn1c(NC(=O)c2ccco2)nc2ccccc21	1.39
CCOC(=O)Cc1csc(NC(=O)CC(C)(C)C)n1	2.56
COc1cccc(OC)c1C(=O)N1CCN(S(=O)(=O)c2ccc(C)cc2)CC1	0.233
C[C@H](CO)N1C[C@H](C)[C@@H](CN(C)Cc2ccc(Cl)c(Cl)c2)Oc2ccc(NS(=O)(=O)c3ccc(F)cc3)cc2CC1=O	19
Cc1ccc(S(=O)(=O)Nc2ccc3c(c2)CC(=O)N([C@@H](C)CO)C[C@@H](C)[C@H](CN(C)Cc2ccc(-c4ccccc4)cc2)O3)cc1	1.17
O=C(NCc1ccco1)c1cc2sccc2n1Cc1ccc(F)cc1	16.4
Fc1ccc(-c2csc(Nc3ccccn3)n2)cc1	7.31
O=C(c1cccc(Cl)c1)c1nn(-c2ccccc2)c(=O)cc1C(F)(F)F	4.99
C[C@H]1CN([C@@H](C)CO)C(=O)Cc2cc(NC(=O)CCCCCC(=O)Nc3ccccc3N)ccc2O[C@H]1CN(C)Cc1ccc(-c2ccccc2)cc1	7.68
O=C(Nc1ccc2nc3n(c(=O)c2c1)CCCCC3)c1c(F)ccc([N+](=O)[O-])c1F	4.3
NS(=O)(=O)OCC(Cc1ccccc1)N1C(=O)c2ccccc2C1=O (centres undefined)	14.6
CCC(c1nnnn1C1CCCC1)N1CCN(c2ccccc2F)CC1 (centres undefined)	4.11
CCS(=O)(=O)c1ncc(Cl)c(C(=O)Nc2ccccc2OC)n1	2.12
CC(C)(C)c1ccc(Cn2nnc3c(=O)[nH]c(C4CCN(C(=O)Cc5cccs5)CC4)nc32)cc1	3.99
CCOC(=O)N1CCN(C(=O)COc2ccc(S(=O)(=O)NC3CCCCC3)cc2C)CC1	14.1
C[C@H](CO)N1C[C@H](C)[C@H](CN(C)Cc2ccc(C(=O)Nc3ccccc3N)cc2)Oc2ccc(NC(=O)Cc3cn(C)c4ccccc34)cc2C1=O	6.08
